Measured values from patent US20230303540A1 (Merck Sharp & Dohme LLC, priority 2020, published 2023).

Target: GST-tagged truncated human mutant G2019S LRRK2 (Homo sapiens, UniProt Q5S007, G2019S)
Experiment: LRRK2 G2019S Km ATP LanthaScreen assay
Format: biochemical
Details: 134 μM ATP (Km ATP), LRRKtide substrate, mean IC50 values; read-out: LRRK2 pIC50 (converted)
Outline: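 Compound preincubated 15 min at room temperature with enzyme in pH 8.5 Tris buffer (10 mM MgCl2). Then a 90 min reaction at ambient temperature with 134 μM (Km) ATP and fluorescein-LRRKtide. EDTA stop, Tb anti-phospho antibody TR-FRET; […]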

SMILES | IC50 [nM]
CC(C)(O)Cn1ncc(Nc2ncc3cc(Cl)c(N4CCC(C)(O)CC4)cc3n2)c1Cl [Ex-3.13, 1-(6-chloro-2-{[5-chloro-1-(2-hydroxy-2-methylpropyl)-1H-pyrazol-4-yl]amino}quinazolin-7-yl)-4-methylpiperidin-4-ol] | 1.54
Cc1cc2cnc(Nc3cnn(C4CC4(F)F)c3Cl)nc2cc1N1CCNCC1 (centres unmarked) [Ex-5.14, N-(5-chloro-1-(2,2-difluorocyclopropyl)-1H-pyrazol-4-yl)-6-methyl-7-(piperazin-1-yl)quinazolin-2-amine] | 11.6
Clc1cc2cnc(Nc3cnn(C4CC4)c3Cl)nc2cc1N1CCN(C2COC2)CC1 [Ex-1.24, 6-chloro-N-(5-chloro-1-cyclopropyl-1H-pyrazol-4-yl)-7-[4-(oxetan-3-yl)piperazin-1-yl]quinazolin-2-amine] | 2.59
CC1(N2CCN(c3cc4nc(Nc5cnn(C6CCC6)c5Cl)ncc4cc3Cl)CC2)COC1 [Ex-4.50, 6-chloro-N-(5-chloro-1-cyclobutyl-1H-pyrazol-4-yl)-7-[4-(3-methyloxetan-3-yl)piperazin-1-yl]quinazolin-2-amine] | 4.61
C[C@H]1COC(=O)N1c1ccc2cnc(Nc3cnn4c3CCCC4)nc2c1 [Ex-8.13, (4S)-4-methyl-3-{2-[(4,5,6,7-tetrahydropyrazolo[1,5-a]pyridin-3-yl)amino]quinazolin-7-yl}-1,3-oxazolidin-2-one] | 0.625
Cc1c(Nc2ncc3cc(Cl)c(N4CCN(C5(C)COCC5O)CC4)cc3n2)cnn1C (single isomer, unassigned) [Ex-3.37, (3R,4R) or (3S,4S) 4-(4-{6-chloro-2-[(1,5-dimethyl-1H-pyrazol-4-yl)amino]quinazolin-7-yl}piperazin-1-yl)-4-methyloxolan-3-ol] | 29.9
Cc1c(Nc2cc3cc(N4CCN(C5(C)COCC5O)CC4)c(Cl)cc3cn2)cnn1C1CC1(F)F (single isomer, unassigned) [Ex-6.53, (3S,4S) or (3R,4R) 4-(4-(7-chloro-3-((1-(2,2-difluorocyclopropyl)-5-methyl-1H-pyrazol-4-yl)amino)isoquinolin-6-yl)piperazin-1-yl)-4-methyltetrahydrofuran-3-ol] | 0.522
Clc1cc2cnc(Nc3cnn(C4CC4)c3Cl)nc2cc1N1CCn2cnnc2C1 [Ex-1.26, 6-chloro-N-(5-chloro-1-cyclopropyl-1H-pyrazol-4-yl)-7-(5,6-dihydro[1,2,4]triazolo[4,3-a]pyrazin-7(8H)-yl)quinazolin-2-amine] | 1.49
CN1CCC2(CCN(c3cc4nc(Nc5cnn(C6(C)CC6)c5Cl)ncc4cc3Cl)C2)C1 (centres unmarked) [Ex-4.42, 6-chloro-N-[5-chloro-1-(1-methylcyclopropyl)-1H-pyrazol-4-yl]-7-(7-methyl-2,7-diazaspiro[4.4]nonan-2-yl)quinazolin-2-amine] | 6.55
C[C@H]1COC(=O)N1c1ccc2cnc(Nc3cn(C)nc3C(F)(F)F)nc2c1 [Ex-7.7, (4S)-4-methyl-3-(2-{[1-methyl-3-(trifluoromethyl)-1H-pyrazol-4-yl]amino}quinazolin-7-yl)-1,3-oxazolidin-2-one] | 1.92
CC1(N2CCN(c3cc4nc(Nc5cnn(C6COC6)c5Cl)ncc4cc3Cl)CC2)COC1 [Ex-4.49, 6-chloro-N-[5-chloro-1-(oxetan-3-yl)-1H-pyrazol-4-yl]-7-[4-(3-methyloxetan-3-yl)piperazin-1-yl]quinazolin-2-amine] | 1.87
C[C@H]1COC(=O)N1c1ccc2cnc(Nc3ccns3)nc2c1 [Ex-8.8, (4S)-4-methyl-3-{2-[(1,2-thiazol-5-yl)amino]quinazolin-7-yl}-1,3-oxazolidin-2-one] | 5.08
COC1CCC1n1ncc(Nc2ncc3cc(Cl)c(N4CCC(C)(O)CC4)cc3n2)c1C (single isomer, unassigned) [Ex-6.20, 1-[6-chloro-2-({1-[(1R,2R) or (1S,2S)-2-methoxycyclobutyl]-5-methyl-1H-pyrazol-4-yl}amino)quinazolin-7-yl]-4-methylpiperidin-4-ol] | 2.53
Cc1c(Nc2ncc3cc(Cl)c(N4CCN(C5(C)COC(C)(C)C5)CC4)cc3n2)cnn1C1CC1 (single isomer, unassigned) [Ex-12.2] | 0.721
Cc1c(Nc2ncc3cc(Cl)c(N4CCN(C5COCC5O)CC4)nc3n2)cnn1C1CC1 (single isomer, unassigned) [Ex-16.4, (3S,4S) or (3R,4R)-4-(4-{6-chloro-2-[(1-cyclopropyl-5-methyl-1H-pyrazol-4-yl)amino]pyrido[2,3-d]pyrimidin-7-yl}piperazin-1-yl)oxolan-3-ol] | 83.8
O=C1COCC12CCN(c1cc3nc(Nc4cnn(C5CC5)c4Cl)ncc3cc1Cl)CC2 [Ex-3.36, 8-{6-chloro-2-[(5-chloro-1-cyclopropyl-1H-pyrazol-4-yl)amino]quinazolin-7-yl}-2-oxa-8-azaspiro[4.5]decan-4-one] | 3.02

SMILES | IC50 [nM]
Cc1c(Nc2ncc3cc(Cl)c(N4CCC(C)(O)CC4C)cc3n2)cnn1C1CC1 (single isomer, unassigned) [Ex-9.1, (2R,4S or 2S,4R, or 2S,4S, or 2R,4R)-1-(6-Chloro-2-((1-cyclopropyl-5-methyl-1H-pyrazol-4-yl)amino)quinazolin-7-yl)-2,4-dimethylpiperidin-4-ol] | 4.68
CC1(N2CCN(c3cc4nc(Nc5cnn(C6CC6(F)F)c5Cl)ncc4cc3Cl)CC2)COC1 (single isomer, unassigned) [Ex-4.60, 6-chloro-N-[5-chloro-1-(2,2-(R) or (S)difluorocyclopropyl)-1H-pyrazol-4-yl]-7-[4-(3-methyloxetan-3-yl)piperazin-1-yl]quinazolin-2-amine] | 3.24
CC(C)(O)Cn1ncc(Nc2ncc3cc(Cl)c(N4CCC(O)CC4)cc3n2)c1Cl [Ex-3.11, 1-(6-chloro-2-{[5-chloro-1-(2-hydroxy-2-methylpropyl)-1H-pyrazol-4-yl]amino}quinazolin-7-yl)piperidin-4-ol] | 0.488
CC1(O)CCN(c2cc3nc(Nc4cnn(C56CC(C5)C6)c4)ncc3cc2Cl)CC1 [Ex-6.11, 1-(2-{[1-(bicyclo[1.1.1]pentan-1-yl)-1H-pyrazol-4-yl]amino}-6-chloroquinazolin-7-yl)-4-methylpiperidin-4-ol] | 0.808
CC1(N2CCN(c3cc4nc(Nc5cnn(CC6CC6)c5Cl)ncc4cc3Cl)CC2)COC1 [Ex-4.48, 6-chloro-N-[5-chloro-1-(cyclopropylmethyl)-1H-pyrazol-4-yl]-7-[4-(3-methyloxetan-3-yl)piperazin-1-yl]quinazolin-2-amine] | 0.625
Cc1c(Nc2ncc3cc(Cl)c(N4CCN(C5COCC5O)CC4)nc3n2)cnn1C1CC1 (single isomer, unassigned) [Ex-16.3, (3S,4S) or (3R,4R)-4-(4-{6-chloro-2-[(1-cyclopropyl-5-methyl-1H-pyrazol-4-yl)amino]pyrido[2,3-d]pyrimidin-7-yl}piperazin-1-yl)oxolan-3-ol] | 4.55
OC1C2CC1CN(c1cc3nc(Nc4cnn(C5CC5)c4)ncc3cc1Cl)C2 (centres unmarked) [Ex-3.28, 3-{6-chloro-2-[(1-cyclopropyl-1H-pyrazol-4-yl)amino]quinazolin-7-yl}-3-azabicyclo [3.1.1]heptan-6-ol] | 4.52
Clc1cc2cnc(Nc3cnn(C4CC4)c3Cl)nc2cc1N1C[C@@H]2C[C@H]1CN2C1COC1 [Ex-1.33, 6-chloro-N-(5-chloro-1-cyclopropyl-1H-pyrazol-4-yl)-7-[(1S,4S)-5-(oxetan-3-yl)-2,5-diazabicyclo[2.2.1]heptan-2-yl]quinazolin-2-amine] | 26.1
Cc1c(Nc2ncc3cc(Cl)c(N4CCN(C5COC(C)(C)C5)CC4)cc3n2)cnn1C1CC1 (single isomer, unassigned) [Ex-12.1] | 2.93
Cc1c(Nc2ncc3ccc(N4C(=O)OCC4C4CC4)cc3n2)cnn1C1CCOCC1 (single isomer, unassigned) [Ex-7.13, (R) or (S) 4-cyclopropyl-3-(2-{[5-methyl-1-(oxan-4-yl)-1H-pyrazol-4-yl]amino}quinazolin-7-yl)-1,3-oxazolidin-2-one] | 11.4
COC1CCC1n1ncc(Nc2ncc3cc(Cl)c(N4CCC(C)(O)CC4)cc3n2)c1C (single isomer, unassigned) [Ex-6.16, 1-(6-chloro-2-((1-((1R,2S) or (1S,2R)-2-methoxycyclobutyl)-5-methyl-1H-pyrazol-4-yl)amino)quinazolin-7-yl)-4-methylpiperidin-4-ol] | 1.57
C[C@H]1COC(=O)N1c1ccc2cnc(Nc3cnsc3)nc2c1 [Ex-8.7, (4S)-4-methyl-3-{2-[(1,2-thiazol-4-yl)amino]quinazolin-7-yl}-1,3-oxazolidin-2-one] | 5.2
O[C@@H]1COC[C@@H]1N1CCN(c2cc3nc(Nc4cnn(C56CC(C5)C6)c4Cl)ncc3cc2Cl)CC1 (single isomer, unassigned) [Ex-13.2, (3S,4S) or (3R,4R)-4-(4-(2-((1-(bicyclo[1.1.1]pentan-1-yl)-5-chloro-1H-pyrazol-4-yl)amino)-6-chloroquinazolin-7-yl)piperazin-1-yl)tetrahydrofuran-3-ol] | 3.81
CC1(N2CCN(c3cc4nc(Nc5cnn(CC6C[C@@H](F)[C@H](F)C6)c5)ncc4cc3Cl)CC2)COC1 [Ex-4.65, 6-chloro-N-(1-{[(3R,4R)-3,4-difluorocyclopentyl]methyl}-1H-pyrazol-4-yl)-7-[4-(3-methyloxetan-3-yl)piperazin-1-yl]quinazolin-2-amine] | 23.9
CCC1(N2CCN(c3cc4nc(Nc5cnn(C6CC6)c5Cl)ncc4cc3Cl)CC2)COC1 [Ex-4.30, 6-chloro-N-(5-chloro-1-cyclopropyl-1H-pyrazol-4-yl)-7-[4-(3-ethyloxetan-3-yl)piperazin-1-yl]quinazolin-2-amine] | 15.7
OC1COCC1N1CCN(c2cc3nc(Nc4cnn(C5CC5(F)F)c4Cl)ncc3cc2Cl)CC1 (single isomer, unassigned) [Ex-6.29, (3S,4S) or (3R,4R) 4-[4-(6-chloro-2-{[5-chloro-1-(2,2-(R) or (S)difluorocyclopropyl)-1H-pyrazol-4-yl]amino}quinazolin-7-yl)piperazin-1-yl)oxolan-3-ol] | 15.2
